Publication PMC9016807, “Metabolic, Pharmacokinetic, and Activity Profile of the Liver Stage Antimalarial (RC-12)” (ACS Omega, 2022)

Legend:
[1] = Metabolism in rhesus monkey liver microsomes; type: in vitro ADME; settings: rhesus monkey, liver microsomes; 1 μM substrate, 0.4 mg/mL microsomal protein, NADPH, 37 °C, 60 min; average of three replicates; read-out: CLint
Experimental: (§1) Following the protocols described by Charman et al.,[28]1 was incubated at 37 °C with human, rat, and rhesus monkey liver microsomes. For the determination of intrinsic clearance, the substrate concentration was 1 μM and the protein concentration was 0.4 mg/mL; for qualitative metabolite identification studies, the substrate and protein concentrations were 10 μM and 1 mg/mL, respectively. The reaction was initiated by the addition of an NADPH-regenerating buffer system, and the samples were incubated for up to 60 (for Clint determination) or 180 min (for additional metabolite identification). Samples without the test compound and without NADPH were also incubated and used as controls. The reaction was quenched by protein precipitation with the addition of an equal volume of ice-cold acetonitrile solution (containing diazepam as an internal standard), followed by vortexing and centrifugation for 3 min at 10000 rpm. The supernatant was removed and analyzed by LC/MS. LC/MS analysis was conducted using a Waters Micromass Xevo G2 QTOF MS coupled to a Waters Acquity UPLC. For metabolite identification, a Supelco Ascentis Express Amide column (50 × 2.1 mm, 2.7 μm) was used with an acetonitrile–water gradient (containing 0.05% formic acid), a flow rate of 0.4 mL/min, a gradient cycle time of 6 min, and an injection volume of 5 μL. MS analysis was conducted using positive mode electrospray ionization under MSE acquisition mode, which allows simultaneous acquisition of MS spectra at low and high collision energies. The identity of putative metabolites was confirmed by the accurate mass and a comparison of the retention times and MS/MS fragmentation patterns with authentic metabolites where available. For metabolite quantitation, the method described below for the analysis of plasma samples was used.

P. cynomolgi hypnozoites = tested on: P. cynomolgi hypnozoites; design: method as in PMID 4091527; settings: cited from earlier work
[2] = Metabolism in rat liver microsomes; type: in vitro ADME; settings: 1 μM substrate, NADPH
Experimental: as §1

[3] = tested on: P. vivax liver-stage parasites; test: P. vivax liver-stage in vitro assay, prophylactic mode; type: cell-based, Plasmodium vivax; settings: 20 μM, two independent runs, threshold for activity 75% inhibition
Experimental: Compound 1 and its metabolites were tested in both prophylactic and radical cure modes for activity against P. vivax liver-stage parasites.[16],[17] In the prophylactic assay, compounds are added the day after sporozoite invasion into hepatocytes in order to characterize the compound activity against established liver forms with a parasitophorous vacuole membrane (as opposed to activity on preinvasion sporozoites) and prior to complete maturation of hypnozoites into drug-insensitive dormant forms, which appear at about 5 days postinvasion.[18] In the radical cure assay, compounds are added at day 5 postinfection to characterize activity against late-stage schizonts and mature PI4K inhibitor-insensitive hypnozoites.[19] In these experiments, the threshold for activity is 75% inhibition. […] Similarly, as previously described,[20] 10 μM concentrations of 1 and its metabolites were also tested for activity against P. cynomolgi schizont (large forms) and hypnozoite (small forms) liver-stage parasites cultured in rhesus monkey hepatocytes. In these experiments, the threshold for activity is 50% inhibition.
Compounds were prepared as 20 mM stock solutions in DMSO and tested in an eight-point semilog (1/3) dilution series from 20 μM in 384-well assay plates in both prophylactic and radical cure mode against P. vivax liver-stage parasites as previously described.[16] Following ethical approval from the Institutional Ethics Committee of the Thai Ministry of Public Health, the Ethical Review Committee of Faculty of Tropical Medicine, Mahidol University (TMEC 11-008 and 14-016), the Oxford Tropical Medicine Ethical Committee, Oxford University, England (OxTREC 17-11 and 40–14), and the Cambodian National Ethics Committee for Health Research (101NECHR), isolates of P. vivax infected blood were collected from patent volunteers in Tak province, Thailandm and Mondulkiri province, Cambodia. Samples were collected by venipuncture into heparin tubes prior to replacement of patient serum with nonimmune AB human serum and feeding to laboratory-reared Anopheles dirus cracens or An. dirus A mosquitoes via water-jacket artificial membrane feeders or the Hemotek insect feeding system (Hemotek, Blackburn, UK) set to maintain the bloodmeal temperature at 37 °C. […] Cryopreserved human hepatocytes (BioIVT, Baltimore, Maryland, USA) were thawed into InVitroGro CP Medium (BioIVT), quantified for viability by trypan blue dye exclusion, diluted to 800–1000 live cells per microliter, and 18000 live cells were plated into each well of a collagen-coated 384-well plate (Greiner, Monroe, NC, USA) by a 16-channel pipet (Finnpipette, Thermo Fisher Scientific, Waltham, MA). […]

[4] = tested on: P. falciparum (NF54 clone); test: Blood stage activity against cultured P. falciparum; type: cell-based, Plasmodium falciparum; settings: concentration up to 15 μM
P. vivax = tested on: P. vivax; design: method as in doi:10.1016/0035-9203(74)90194-1; settings: 7-day course at 10 mg/(kg day); cited from earlier work

SMILES: CCN(CC)CCN(CCN(CC)CC)c1cc(OC)c(OC)cc1Br [Compound 1, 4-(2-bromo-4,5-dimethoxyphenyl)-1,1,7,7-tetraethyldiethylenetriamine]
- microsomal CLint at 1 μM [1]: 23 ± 4.7 µL/min/mg
- efficacy against hypnozoites relative to primaquine (P. cynomolgi hypnozoites): about 1 order of magnitude less effective than primaquine
- hemolysis (P. cynomolgi hypnozoites): produced no hemolysis
- toxicity relative to primaquine (P. cynomolgi hypnozoites): 1 order of magnitude less toxic
- average substrate depletion over a 60 min incubation ([2]; 0.4 mg/mL protein, relative to initial substrate concentration): ~90%
- microsomal CLint at 1 μM ([2]; rat, liver microsomes, 0.4 mg/mL microsomal protein, 37 °C, 60 min, average of three replicates, read-out: CLint): 100 ± 2.6 µL/min/mg
- activity against schizonts or hypnozoites [3]: no activity
- blood stage activity [4]: no blood stage activity
- prevention of infections / inhibition of relapses of P. vivax (P. vivax): did not prevent infections or inhibit relapses
- tolerability (P. vivax): well-tolerated
